In patent publication US10584128B2, “Bicyclic dihydropyrimidine-carboxamide derivatives as Rho-Kinase inhibitors” (CHIESI FARMACEUTICI S.p.A., priority 2016, dated 2020) one finds Ki data, which are given here for 22 molecules.

For experiment [1], the target named is Rho kinase 2 (Homo sapiens, UniProt O75116). Put plainly: In vitro Rho kinase inhibitory activity assay (ADP-Glo kit, Myelin Basic Protein substrate). The format is biochemical. The note with it: 10 μM ATP, 25° C., read-out: ROCK2 inhibitory activity (Ki, range of activity). Here is the method:
(§1) The effectiveness of compounds of the present invention to inhibit Rho kinase activity can be determined in a 10 μl assay containing 40 mM Tris pH7.5, 20 mM MgCl2 0.1 mg/ml BSA, 50 μM DTT and 2.5 μM peptide substrate (Myelin Basic Protein) using an ADP-Glo kit (Promega). Compounds were dissolved in DMSO such that the final concentration of DMSO was 1% in the assay. All reactions/incubations are performed at 25° C. Compound (2 ul) and either Rho kinase 1 or 2 (4 μl) were mixed and incubated for 30 mins. Reactions were initiated by addition of ATP (4 μl) such that the final concentration of ATP in the assay was 10 μM. After a 1 hour incubation 10 μl of ADP-Glo Reagent was added and after a further 45 minute incubation 20 ul of Kinase Detection Buffer was added and the mixture incubated for a further 30 minutes. The luminescent signal was measured on a luminometer. […] Compounds were tested in dose-response format and the inhibition of kinase activity was calculated at each concentration of compound. To determine the IC50 (concentration of compound required to inhibit 50% of the enzyme activity) data were fit to a plot of % inhibition vs Log10 compound concentration using a sigmoidal fit with a variable slope and fixing the maximum to 100% and the minimum to 0%. To determine the Ki values the Cheng-Prusoff equation was utilized (Ki=IC50/(1+[S]/Km).

In experiment [2] the target is Rho kinase 1 (Homo sapiens, UniProt Q13464). Described as above. The note with it: 10 μM ATP, 25° C., read-out: ROCK1 inhibitory activity (Ki, range of activity). The experiment is classed as biochemical. How it is done: as §1

A value given as a limit tells only on which side of the number the result lay.

Sequence of Rho kinase 2 (O75116 whole entry): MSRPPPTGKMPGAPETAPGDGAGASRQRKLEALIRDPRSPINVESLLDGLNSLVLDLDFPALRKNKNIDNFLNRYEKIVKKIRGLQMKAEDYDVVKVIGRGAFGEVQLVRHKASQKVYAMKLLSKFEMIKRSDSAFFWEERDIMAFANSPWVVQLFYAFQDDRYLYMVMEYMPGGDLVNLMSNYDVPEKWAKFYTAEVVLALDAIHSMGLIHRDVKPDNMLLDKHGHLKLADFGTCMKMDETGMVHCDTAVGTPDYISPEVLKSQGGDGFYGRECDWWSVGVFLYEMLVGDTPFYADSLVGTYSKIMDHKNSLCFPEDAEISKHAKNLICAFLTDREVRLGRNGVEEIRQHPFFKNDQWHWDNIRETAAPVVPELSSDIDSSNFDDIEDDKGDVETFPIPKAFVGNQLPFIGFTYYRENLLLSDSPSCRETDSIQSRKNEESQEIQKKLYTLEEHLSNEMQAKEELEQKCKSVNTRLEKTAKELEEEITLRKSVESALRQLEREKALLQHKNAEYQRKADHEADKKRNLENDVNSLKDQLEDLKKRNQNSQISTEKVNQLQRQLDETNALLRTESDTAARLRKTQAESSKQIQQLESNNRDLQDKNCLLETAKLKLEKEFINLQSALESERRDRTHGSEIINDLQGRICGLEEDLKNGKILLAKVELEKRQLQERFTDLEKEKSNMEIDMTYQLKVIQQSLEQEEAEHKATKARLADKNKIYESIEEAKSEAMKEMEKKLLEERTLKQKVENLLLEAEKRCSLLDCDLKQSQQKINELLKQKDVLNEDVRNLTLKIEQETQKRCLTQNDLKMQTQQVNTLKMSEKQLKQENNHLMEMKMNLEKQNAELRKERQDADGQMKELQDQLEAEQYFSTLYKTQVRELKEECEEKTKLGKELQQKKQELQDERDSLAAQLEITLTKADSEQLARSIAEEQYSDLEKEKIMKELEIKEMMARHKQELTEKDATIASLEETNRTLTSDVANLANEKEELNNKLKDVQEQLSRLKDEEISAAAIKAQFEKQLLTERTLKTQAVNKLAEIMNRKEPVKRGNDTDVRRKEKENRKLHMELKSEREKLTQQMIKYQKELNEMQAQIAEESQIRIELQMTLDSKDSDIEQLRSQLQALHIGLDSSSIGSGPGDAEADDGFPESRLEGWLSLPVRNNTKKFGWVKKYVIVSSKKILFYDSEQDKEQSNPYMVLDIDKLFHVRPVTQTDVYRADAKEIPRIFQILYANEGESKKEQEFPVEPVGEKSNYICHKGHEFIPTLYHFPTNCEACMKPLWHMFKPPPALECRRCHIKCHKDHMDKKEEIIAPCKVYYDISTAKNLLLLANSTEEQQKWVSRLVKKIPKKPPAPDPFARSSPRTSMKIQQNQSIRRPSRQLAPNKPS
Sequence of Rho kinase 1 (Q13464 whole entry): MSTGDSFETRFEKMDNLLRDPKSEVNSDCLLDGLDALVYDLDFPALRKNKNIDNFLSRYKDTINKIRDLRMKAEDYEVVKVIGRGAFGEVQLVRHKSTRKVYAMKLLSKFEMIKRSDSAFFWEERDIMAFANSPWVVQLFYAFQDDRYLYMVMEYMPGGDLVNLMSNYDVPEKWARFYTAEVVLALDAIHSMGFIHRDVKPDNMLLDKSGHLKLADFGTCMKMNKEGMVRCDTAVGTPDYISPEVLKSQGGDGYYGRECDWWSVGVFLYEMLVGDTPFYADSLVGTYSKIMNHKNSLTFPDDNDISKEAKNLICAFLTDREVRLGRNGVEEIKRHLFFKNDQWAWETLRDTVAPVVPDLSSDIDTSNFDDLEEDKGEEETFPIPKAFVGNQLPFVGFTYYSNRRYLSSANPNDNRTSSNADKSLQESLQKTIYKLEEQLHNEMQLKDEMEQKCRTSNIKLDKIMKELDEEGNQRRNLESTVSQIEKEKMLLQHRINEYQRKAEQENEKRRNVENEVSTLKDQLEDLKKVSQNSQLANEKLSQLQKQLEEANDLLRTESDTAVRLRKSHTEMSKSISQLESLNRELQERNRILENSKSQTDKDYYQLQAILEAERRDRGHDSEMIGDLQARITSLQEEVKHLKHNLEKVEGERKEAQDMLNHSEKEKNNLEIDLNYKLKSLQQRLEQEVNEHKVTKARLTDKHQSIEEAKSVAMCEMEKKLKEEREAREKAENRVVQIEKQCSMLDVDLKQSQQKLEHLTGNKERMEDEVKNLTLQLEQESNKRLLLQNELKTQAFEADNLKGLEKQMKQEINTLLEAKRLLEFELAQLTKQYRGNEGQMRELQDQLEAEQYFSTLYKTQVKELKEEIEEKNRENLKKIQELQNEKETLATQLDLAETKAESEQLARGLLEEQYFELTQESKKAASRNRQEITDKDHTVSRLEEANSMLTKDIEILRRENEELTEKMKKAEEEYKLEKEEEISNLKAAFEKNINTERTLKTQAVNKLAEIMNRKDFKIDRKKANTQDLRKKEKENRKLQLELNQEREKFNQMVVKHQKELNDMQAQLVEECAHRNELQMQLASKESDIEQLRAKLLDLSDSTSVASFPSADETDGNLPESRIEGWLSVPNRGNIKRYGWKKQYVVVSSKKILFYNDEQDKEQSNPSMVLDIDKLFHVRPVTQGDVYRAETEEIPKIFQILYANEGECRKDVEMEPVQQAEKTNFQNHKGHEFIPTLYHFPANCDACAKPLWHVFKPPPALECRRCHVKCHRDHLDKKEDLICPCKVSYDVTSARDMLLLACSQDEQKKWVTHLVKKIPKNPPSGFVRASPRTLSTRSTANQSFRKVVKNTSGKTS

As a reminder, the Ki is the dissociation constant of the complex between target and ligand, obtained from inhibition or displacement. `CC1=C(C(=O)Nc2ccc3[nH]ncc3c2)C(c2ccc(F)cc2)n2ncc(C(=O)N3CCN(C)CC3)c2N1` (centres unmarked) [Example 91, 7-(4-fluorophenyl)-N-(1H-indazol-5-yl)-5-methyl-3-(4-methylpiperazine-1-carbonyl)-4,7-dihydropyrazolo[1,5-a]pyrimidine-6-carboxamide]: the Ki in experiment [1] and in experiment [2] was more than 500 nM throughout.

On to `CC1=C(C(=O)Nc2ccc3cnccc3c2)C(C2Cc3ccccc3C2)n2nc(CN(C)C)cc2N1` (single isomer, unassigned) [Example 124a, 7-(2,3-dihydro-1H-inden-2-yl)-2-((dimethylamino)methyl)-N-(isoquinolin-6-yl)-5-methyl-4,7-dihydropyrazolo[1,5-a]pyrimidine-6-carboxamide], for which the Ki in experiment [1] and in experiment [2] was more than 500 nM in each case.

Consider `CC1=C(C(=O)Nc2ccc3cnccc3c2)C(c2ccc(C(F)(F)F)c(F)c2)n2nc(CN3CCOCC3)cc2N1` (centres unmarked) [Example 95, 7-(3-fluoro-4-(trifluoromethyl)phenyl)-N-(isoquinolin-6-yl)-5-methyl-2-(morpholinomethyl)-4,7-dihydropyrazolo[1,5-a]pyrimidine-6-carboxamide], for which the Ki in experiment [1] and in experiment [2] was less than 50 nM each time.

As for `CC1=C(C(=O)Nc2ccc3cnccc3c2)C(c2cnc(-c3ccccc3)s2)n2nc(CO)cc2N1` (centres unmarked) [Example 52, 2-(hydroxymethyl)-N-(isoquinolin-6-yl)-5-methyl-7-(2-phenylthiazol-5-yl)-4,7-dihydropyrazolo[1,5-a]pyrimidine-6-carboxamide], the Ki in experiment [1] and in experiment [2] was less than 50 nM throughout.

On to `CC1=C(C(=O)Nc2ccc3cnccc3c2)C(c2cnc(-c3ccccc3)o2)n2nc(CO)cc2N1` (centres unmarked) [Example 49, 2-(hydroxymethyl)-N-(isoquinolin-6-yl)-5-methyl-7-(2-phenyloxazol-5-yl)-4,7-dihydropyrazolo[1,5-a]pyrimidine-6-carboxamide], for which the results for the Ki in experiment [1] and in experiment [2] were less than 50 nM and 50 to 500 nM, respectively.

As to `CC1=C(C(=O)Nc2ccc3cnccc3c2)C(c2ccc(C(F)(F)F)c(F)c2)n2nc(NC(=O)CCN3CCCCC3)cc2N1` (centres unmarked) [Example 131, 7-(3-Fluoro-4-(trifluoromethyl)phenyl)-N-(isoquinolin-6-yl)-5-methyl-2-(3-(piperidin-1-yl)propanamido)-4,7-dihydropyrazolo[1,5-a]pyrimidine-6-carboxamide], the Ki in experiment [1] and in experiment [2] was less than 50 nM each time.

Turning to `CC1=C(C(=O)Nc2ccc3cnccc3c2)C(c2ccc(C(F)(F)F)c(F)c2)n2nc(CN3CCN(C)CC3)cc2N1` (single isomer, unassigned) [Example 96B, 7-(3-fluoro-4-(trifluoromethyl)phenyl)-N-(isoquinolin-6-yl)-5-methyl-2-((4-methylpiperazin-1-yl)methyl)-4,7-dihydropyrazolo[1,5-a]pyrimidine-6-carboxamide], the Ki in experiment [1] and in experiment [2] was less than 50 nM throughout.

Turning to `CC(=O)N1CCN(Cc2cc3n(n2)C(c2ccc(C(F)(F)F)c(F)c2)C(C(=O)Nc2ccc4cnccc4c2)=C(C)N3)CC1` (centres unmarked) [Example 109, 2-((4-acetylpiperazin-1-yl)methyl)-7-(3-fluoro-4-(trifluoromethyl)phenyl)-N-(isoquinolin-6-yl)-5-methyl-4,7-dihydropyrazolo[1,5-a]pyrimidine-6-carboxamide], the Ki in experiment [1] and in experiment [2] was less than 50 nM in each case.

Take `CC1=C(C(=O)Nc2ccc3cnccc3c2)C(c2ccc(C(F)(F)F)c(F)c2)n2nc(N)cc2N1` (single isomer, unassigned) [130A]: the Ki in experiment [1] and in experiment [2] was more than 500 nM in each case.

`CC1=C(C(=O)Nc2ccc3cnccc3c2)C(c2ccc(C(F)(F)F)c(F)c2)n2nc(C(=O)NCCN3CCCCC3)nc2N1` (centres unmarked) [Example 129, 7-(3-fluoro-4-(trifluoromethyl)phenyl)-N6-(isoquinolin-6-yl)-5-methyl-N2-(2-(piperidin-1-yl)ethyl)-4,7-dihydro-[1,2,4]triazolo[1,5-a]pyrimidine-2,6-dicarboxamide]: the Ki in experiment [1] and in experiment [2] was less than 50 nM throughout.

As for `CC1=C(C(=O)Nc2ccc3cnccc3c2)C(c2ccc(C(F)(F)F)c(F)c2)n2nc(CN3CCCCC3)cc2N1` (single isomer, unassigned) [Example 97A, 7-(3-fluoro-4-(trifluoromethyl)phenyl)-N-(isoquinolin-6-yl)-5-methyl-2-(piperidin-1-ylmethyl)-4,7-dihydropyrazolo[1,5-a]pyrimidine-6-carboxamide], the Ki in experiment [1] and in experiment [2] was 50 to 500 nM each time.

Consider `COCCN(C)Cc1cc2n(n1)C(c1ccc(C(F)(F)F)c(F)c1)C(C(=O)Nc1ccc3cnccc3c1)=C(C)N2` (centres unmarked) [Example 98, 7-(3-fluoro-4-(trifluoromethyl)phenyl)-N-(isoquinolin-6-yl)-2-(((2-methoxyethyl)(methyl)amino)methyl)-5-methyl-4,7-dihydropyrazolo[1,5-a]pyrimidine-6-carboxamide], for which the Ki in experiment [1] and in experiment [2] was less than 50 nM each time.

Turning to `CC1=C(C(=O)Nc2ccc3[nH]ncc3c2)C(c2ccc(C)cc2)n2nc(CO)cc2N1` (centres unmarked) [Example 67, 2-(hydroxymethyl)-N-(1H-indazol-5-yl)-5-methyl-7-(p-tolyl)-4,7-dihydropyrazolo[1,5-a]pyrimidine-6-carboxamide], the Ki in experiment [1] and in experiment [2] was less than 50 nM in each case.

`CC1=C(C(=O)Nc2ccc3[nH]ncc3c2)C(c2ccc(C)cc2)n2nc(C(=O)O)cc2N1` (centres unmarked) [Example 74, 6-((1H-indazol-5-yl)carbamoyl)-5-methyl-7-(p-tolyl)-4,7-dihydropyrazolo[1,5-a]pyrimidine-2-carboxylic acid]: the Ki in experiment [1] and in experiment [2] was less than 50 nM each time.

Consider `CC1=C(C(=O)Nc2ccc3cnccc3c2)C(c2ccc(C(F)(F)F)c(F)c2)n2nc(CN3CCC4(CCN(C)CC4)C3)cc2N1` (centres unmarked) [Example 103, 7-(3-fluoro-4-(trifluoromethyl)phenyl)-N-(isoquinolin-6-yl)-5-methyl-2-((8-methyl-2,8-diazaspiro[4.5]decan-2-yl)methyl)-4,7-dihydropyrazolo[1,5-a]pyrimidine-6-carboxamide], for which the Ki in experiment [1] and in experiment [2] was less than 50 nM in each case.

In the case of `CC1=C(C(=O)Nc2ccc3[nH]ncc3c2)C(c2ccc(C(F)(F)F)c(F)c2)n2nnnc2N1` (single isomer, unassigned) [Example 25B, 7-(3-fluoro-4-(trifluoromethyl)phenyl)-N-(1H-indazol-5-yl)-5-methyl-4,7-dihydrotetrazolo[1,5-a]pyrimidine-6-carboxamide], the Ki in experiment [1] and in experiment [2] was 50 to 500 nM throughout.

Regarding `CCOC(=O)c1nn2c(c1C#N)NC(C)=C(C(=O)Nc1ccc3[nH]ncc3c1)C2c1ccc(C(F)(F)F)cc1` (centres unmarked) [Example 16, ethyl 6-((1H-indazol-5-yl)carbamoyl)-3-cyano-5-methyl-7-(4-(trifluoromethyl)phenyl)-4,7-dihydropyrazolo[1,5-a]pyrimidine-2-carboxylate], the Ki in experiment [1] and in experiment [2] was less than 50 nM throughout.

`CC1=C(C(=O)Nc2ccc3cnccc3c2)C(c2ccc(C)c(F)c2)n2nc(NC(=O)CN3CCCC3)cc2N1` (centres unmarked) [Example 134, 7-(3-fluoro-4-methylphenyl)-N-(isoquinolin-6-yl)-5-methyl-2-(2-(pyrrolidin-1-yl)acetamido)-4,7-dihydropyrazolo[1,5-a]pyrimidine-6-carboxamide]: the Ki in experiment [1] and in experiment [2] was less than 50 nM throughout.

Regarding `CC1=C(C(=O)Nc2ccc3cnccc3c2)C(c2ccc(C(F)(F)F)c(F)c2)n2nc(C3COC3)cc2N1` (centres unmarked) [Example 116, 7-(3-fluoro-4-(trifluoromethyl)phenyl)-N-(isoquinolin-6-yl)-5-methyl-2-(oxetan-3-yl)-4,7-dihydropyrazolo[1,5-a]pyrimidine-6-carboxamide], the Ki in experiment [1] and in experiment [2] was less than 50 nM throughout.

With `CC1=C(C(=O)Nc2ccc3cnccc3n2)C(c2ccc(C(F)(F)F)c(F)c2)n2nc(CN(C)C)cc2N1` (centres unmarked) [Example 123, 2-((dimethylamino)methyl)-7-(3-fluoro-4-(trifluoromethyl)phenyl)-5-methyl-N-(1,6-naphthyridin-2-yl)-4,7-dihydropyrazolo[1,5-a]pyrimidine-6-carboxamide], the inhibition constant (Ki) in experiment [1] and in experiment [2] was less than 50 nM each time.

`CCOC(=O)c1cc2n(n1)C(c1ccc(C(F)(F)F)c(F)c1)C(C(=O)Nc1ccc3cncc(C)c3c1)=C(C)N2` (centres unmarked) [Example 114, ethyl 7-(3-fluoro-4-(trifluoromethyl)phenyl)-5-methyl-6-((4-methylisoquinolin-6-yl)carbamoyl)-4,7-dihydropyrazolo[1,5-a]pyrimidine-2-carboxylate]: the Ki in experiment [1] and in experiment [2] was less than 50 nM each time.

As for `CC1=C(C(=O)Nc2ccc3cnccc3c2)C(c2ccc(C(F)(F)F)c(F)c2)n2nc(CN3CCN(C)CC3)cc2N1` (single isomer, unassigned) [Example 96A, 7-(3-fluoro-4-(trifluoromethyl)phenyl)-N-(isoquinolin-6-yl)-5-methyl-2-((4-methylpiperazin-1-yl)methyl)-4,7-dihydropyrazolo[1,5-a]pyrimidine-6-carboxamide], the Ki in experiment [1] and in experiment [2] was 50 to 500 nM each time.
